Experimental data taken from paper PMC9405123, “Design, Synthesis and Mechanistic Studies of Novel Isatin-Pyrazole Hydrazone Conjugates as Selective and Potent Bacterial MetAP Inhibitors” (Antibiotics, 2022).

Columns and labels:
[1] = system: P. aeruginosa; test: Growth inhibition screening (broth dilution); type: cell-based, Pseudomonas aeruginosa; conditions: Pseudomonas aeruginosa
Experimental: (§1) In vitro screening of the compounds (PS1–14) was performed to assess the antibacterial activity against three Gram-positive (Staphylococcus aureus, Enterococcus faecalis and Bacillus subtilis,) and three Gram-negative (Pseudomonas aeruginosa, Klebsiella pneumonia and Escherichia coli) bacterial strains using the standard NCCLS broth dilution assay. The study’s standard drugs were ciprofloxacin (CIP) and ampicillin (AMP). Compounds were dissolved in a polar solvent (DMSO) and distributed into a 96-well plate in 200 µL of nutrient broth medium, with a final concentration of the compounds […] in each well. The bacterial cells (about 2.5 × 10^5 cells/mL) were inoculated into each well and incubated at 37 °C overnight. After incubation, the growth was measured by turbidity of the culture at 590 nm by spectrophotometer.

[2] = biological target: T1, MtMetAP1c (Mycobacterium tuberculosis, UniProt P9WK19); test: MetAP enzyme inhibition, Morrison Ki (Met-AMC fluorescence); type: biochemical, M. tuberculosis; conditions: Morrison Ki method
T1 construct: made in house
T1 sequence (P9WK19 whole entry): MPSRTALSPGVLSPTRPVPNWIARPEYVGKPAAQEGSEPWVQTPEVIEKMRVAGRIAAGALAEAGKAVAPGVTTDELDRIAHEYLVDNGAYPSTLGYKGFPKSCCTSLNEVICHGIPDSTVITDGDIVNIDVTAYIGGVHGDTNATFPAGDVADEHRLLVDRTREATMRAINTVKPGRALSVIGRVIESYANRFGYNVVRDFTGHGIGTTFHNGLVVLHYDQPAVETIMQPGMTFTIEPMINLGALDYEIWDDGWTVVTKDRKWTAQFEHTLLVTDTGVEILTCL
Experimental: MetAP appears to serve a vital role in the co- or post-translational modification of proteins, making it essential for bacterial cell metabolism and survival. In this study, all enzymes, which were used for this study, including MtMetAP1c (M. tuberculosis), EfMetAP1a (E. faecalis), SpMetAP1a (S. pneumoniae) and HsMetAP1b (H. sapiens) enzymes, were expressed and purified in our lab as previously reported. All compounds prepared 10 mM stocks in DMSO and were used for enzyme inhibition studies. The concentration of each enzyme is adjusted such that they have similar reaction rates (HsMetAp1b, 1 µM; SpMetAP1a, 5 µM; EfMetAP1a, 1 µM; MtMetAP1c, 1 µM;) as reported earlier. All assays were performed in […] reaction containing 50 mM HEPES (pH 7.5 for SpMetAP1a and HsMetAP1b; 8.0 for EfMetAP1a, MtMetAP1c, […]), 150 mM NaCl, and CoCl2 (three molar equivalents of corresponding enzymes). The reaction was started by adding 50 μM L-Methionine 7-amido-4-methyl coumarin (Met-AMC) and continuously monitoring the fluorescence of released 7-amino-4-methyl coumarin (AMC) (380 nm excitation and 460 nm emission) in a microplate multimode reader (TECAN, Austria). The maximum percentage of inhibition against enzymes is calculated at […] compound concentration. […] The Ki values were determined according to the Morrison method using three different concentrations of substrates and ten different concentrations of the inhibitor. All experiments were performed in triplicate. GraphPad Prism version 8.0.0 (San Diego, CA, USA) was used to determine all the kinetic parameters.

[3] = system: K. pneumoniae; test: Growth inhibition screening (broth dilution); type: cell-based, Klebsiella pneumonia; conditions: Klebsiella pneumoniae
Experimental: as §1

[4] = system: E. coli; test: Growth inhibition screening (broth dilution); type: cell-based, Escherichia coli; conditions: Escherichia coli
Experimental: as §1

[5] = system: E. faecalis; test: Growth inhibition screening (broth dilution); type: cell-based, Enterococcus faecalis; conditions: Enterococcus faecalis
Experimental: as §1

[6] = system: B. subtilis; test: Growth inhibition screening (broth dilution); type: cell-based, Bacillus subtilis; conditions: Bacillus subtilis
Experimental: as §1

[7] = system: S. aureus; test: Growth inhibition screening (broth dilution); type: cell-based, Staphylococcus aureus; conditions: Staphylococcus aureus
Experimental: as §1

[8] = biological target: SpMetAP1a (Streptococcus pneumoniae, UniProt Q8DPV1); test: MetAP enzyme inhibition, Morrison Ki (Met-AMC fluorescence); type: biochemical; conditions: Morrison Ki method
SpMetAP1a, sequence (Q8DPV1 entry or part of it): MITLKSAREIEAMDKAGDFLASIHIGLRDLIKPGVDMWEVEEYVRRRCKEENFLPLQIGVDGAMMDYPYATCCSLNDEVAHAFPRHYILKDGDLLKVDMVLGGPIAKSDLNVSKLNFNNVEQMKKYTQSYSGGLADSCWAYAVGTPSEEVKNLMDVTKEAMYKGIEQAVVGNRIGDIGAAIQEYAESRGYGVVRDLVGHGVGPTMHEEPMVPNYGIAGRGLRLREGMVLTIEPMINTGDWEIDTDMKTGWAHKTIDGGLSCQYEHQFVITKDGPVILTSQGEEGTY

[9] = biological target: EfMetAP1a (Enterococcus faecalis, UniProt Q832M5); test: as above; type: biochemical; conditions: Morrison Ki method
EfMetAP1a, sequence (Q832M5 entry or part of it): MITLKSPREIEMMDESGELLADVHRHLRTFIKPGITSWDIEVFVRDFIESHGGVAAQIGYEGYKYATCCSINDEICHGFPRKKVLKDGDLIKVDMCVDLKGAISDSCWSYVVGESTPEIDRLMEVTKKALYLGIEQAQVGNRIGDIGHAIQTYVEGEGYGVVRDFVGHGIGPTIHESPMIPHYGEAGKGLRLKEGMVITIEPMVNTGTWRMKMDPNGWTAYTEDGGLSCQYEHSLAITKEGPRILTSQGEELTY

Compound | inhibition at 250 µg/mL [1] [%] | Ki [2] [nM] | inhibition at 250 µg/mL [3] [%] | inhibition at 250 µg/mL [4] [%] | melting point [°C] | inhibition at 250 µg/mL [5] [%] | inhibition at 250 µg/mL [6] [%] | inhibition at 250 µg/mL [7] [%] | Ki [8] [nM] | Ki [9] [µM]
O=C1Nc2ccc(Br)cc2/C1=N\NC(=O)c1cc(-c2cccc(Br)c2)n[nH]1 [PS5, (E)-N′-(5-Bromo-2-Oxoindolin-3-Ylidene)-3-(3-Bromophenyl)-1H-Pyrazole-5-Carbohydrazide] | 100 | 3140 ± 410 | 100 | 9 | 230 to 233 | 86 | 34 | 100 |  | 
O=C1Nc2cc([N+](=O)[O-])ccc2/C1=N\NC(=O)c1cc(-c2cccc(Br)c2)n[nH]1 [PS14, (E)-3-(3-Bromophenyl)-N′-(6-Nitro-2-Oxoindolin-3-Ylidene)-1H-Pyrazole-5-Carbohydrazide] | 3 | 1270 | 17 | 34 | 225 to 228 | 9 | 86 | 33 | 500 ± 30 | 
COc1ccc2c(c1)NC(=O)/C2=N/NC(=O)c1cc(-c2cccc(Br)c2)n[nH]1 [PS12, (E)-3-(3-Bromophenyl)-N′-(6-Methoxy-2-Oxoindolin-3-Ylidene)-1H-Pyrazole-5-Carbohydrazide] | 23 | 610 ± 30 | 6 | 74 | 228 to 230 | 65 | 85 | 100 |  | 3.25 ± 0.14
Cc1cc(C)c2c(c1)/C(=N\NC(=O)c1cc(-c3cccc(Br)c3)n[nH]1)C(=O)N2 [PS4, (E)-3-(3-Bromophenyl)-N′-(5,7-Dimethyl-2-Oxoindolin-3-Ylidene)-1H-Pyrazole-5-Carbohydrazide] | 90 |  | 97 | 80 | 257 to 260 | 47 | 44 | 81 |  | 
O=C1Nc2cc(F)ccc2/C1=N\NC(=O)c1cc(-c2cccc(Br)c2)n[nH]1 [PS7, (E)-3-(3-Bromophenyl)-N′-(6-Fluoro-2-Oxoindolin-3-Ylidene)-1H-Pyrazole-5-Carbohydrazide] | 65 |  | 49 | 3 | 228 to 230 | 99 | 100 | 10 |  | 
O=C1Nc2ccc(Cl)cc2/C1=N\NC(=O)c1cc(-c2cccc(Br)c2)n[nH]1 [PS8, (E)-3-(3-Bromophenyl)-N′-(5-Chloro-2-Oxoindolin-3-Ylidene)-1H-Pyrazole-5-Carbohydrazide] | 100 |  | 52 | 84 | 217 to 220 | 13 | 93 | 3 |  | 
O=C1Nc2c(cccc2[N+](=O)[O-])/C1=N\NC(=O)c1cc(-c2cccc(Br)c2)n[nH]1 [PS10, (E)-3-(3-Bromophenyl)-N′-(7-Nitro-2-Oxoindolin-3-Ylidene)-1H-Pyrazole-5-Carbohydrazide] | 100 |  | 52 | 88 | 215 to 218 | 85 | 56 | 82 |  | 
O=C1Nc2c(Cl)cccc2/C1=N\NC(=O)c1cc(-c2cccc(Br)c2)n[nH]1 [PS13, (E)-3-(3-Bromophenyl)-N′-(7-Chloro-2-Oxoindolin-3-Ylidene)-1H-Pyrazole-5-Carbohydrazide] | 95 |  | 74 | 20 | 205 to 208 | 36 | 33 | 92 |  | 
